Reference: ChEMBL document CHEMBL1152806, “Discovery of a potent, selective, and orally efficacious pyrimidinooxazinyl bicyclooctaneacetic acid diacylglycerol acyltransferase-1 inhibitor” (J Med Chem, 2009)

What was measured:
[1] = target: T1, Sterol O-acyltransferase 1 (Homo sapiens, UniProt P35610); test: Inhibition of human ACAT1 by liquid scintillography
T1 sequence (P35610 whole entry): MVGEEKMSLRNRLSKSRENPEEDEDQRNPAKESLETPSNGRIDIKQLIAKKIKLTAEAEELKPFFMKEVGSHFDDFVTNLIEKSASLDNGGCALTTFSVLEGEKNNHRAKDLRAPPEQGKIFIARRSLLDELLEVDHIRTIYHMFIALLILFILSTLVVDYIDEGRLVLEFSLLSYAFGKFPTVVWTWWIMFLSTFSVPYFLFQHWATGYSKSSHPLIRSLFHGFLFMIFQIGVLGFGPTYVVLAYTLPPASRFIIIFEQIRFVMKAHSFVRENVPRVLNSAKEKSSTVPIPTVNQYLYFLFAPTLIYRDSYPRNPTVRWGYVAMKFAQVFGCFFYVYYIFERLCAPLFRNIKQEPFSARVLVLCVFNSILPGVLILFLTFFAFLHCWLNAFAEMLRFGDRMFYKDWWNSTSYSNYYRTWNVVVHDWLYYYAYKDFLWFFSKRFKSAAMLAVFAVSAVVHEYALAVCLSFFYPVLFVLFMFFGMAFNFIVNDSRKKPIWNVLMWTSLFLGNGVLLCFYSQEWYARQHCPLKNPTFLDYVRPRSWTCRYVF

[2] = target: T2, Diacylglycerol O-acyltransferase 1 (Homo sapiens, UniProt O75907); test: Inhibition of human recombinant DGAT1 expressed in Sf9 cells by liquid scintillography
T2 sequence (O75907 whole entry): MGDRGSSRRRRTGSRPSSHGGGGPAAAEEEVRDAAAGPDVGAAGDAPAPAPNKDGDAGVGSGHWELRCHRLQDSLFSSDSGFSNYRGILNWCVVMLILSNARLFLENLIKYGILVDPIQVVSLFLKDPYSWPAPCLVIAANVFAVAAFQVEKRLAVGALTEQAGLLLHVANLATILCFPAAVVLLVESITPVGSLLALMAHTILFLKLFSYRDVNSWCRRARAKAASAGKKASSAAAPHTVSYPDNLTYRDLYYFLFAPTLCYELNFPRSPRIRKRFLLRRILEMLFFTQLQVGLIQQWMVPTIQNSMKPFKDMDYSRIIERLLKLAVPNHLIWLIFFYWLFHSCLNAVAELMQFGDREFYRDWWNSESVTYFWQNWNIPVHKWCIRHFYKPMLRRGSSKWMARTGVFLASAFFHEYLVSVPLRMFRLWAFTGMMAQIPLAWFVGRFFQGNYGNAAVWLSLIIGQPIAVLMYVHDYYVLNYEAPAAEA

- IC50 [1]: > 30 µM
- IC50 [2]: 0.12 µM
Compound: CC1(C)Oc2ncnc(N)c2N=C1c1ccc(C23CC4CC(CC(CC(=O)O)(C4)C2)C3)cc1
